# Measurements reported in patent US5472954A, “Cyclodextrin complexation” (priority 1993, dated 1995).
# Read-outs that look alike come from different tables or passages of the source.
# Assays:
# [1] = physchem
# [2] = physchem; settings: 10% heβcd
# [3] = physchem; remark: listed apart in the source
# [4] = physchem; remark: listed apart in the source
# [5] = Effect of previously prepared solid HPβCD-polymer complexing agent on solubility (Example 13); assay type: physicochemical
# Procedure: The resultant solutions were heated in sealed containers to 120° C. and maintained at that temperature for 30 minutes, then were lyophilized. The solids thus obtained were ground with a mortar and pestle.
# The solid cyclodextrin/polymer products were reconstituted with water to afford solutions containing 9.88% (w/v) HPβCD and 0.12% (w/v) PVP, 0.12% (w/v) or CMC 0.12% (w/v) HPMC. The solubilities (S) of three drugs in these solutions and in an aqueous solution containing 10% (w/v) HPβCD without added polymer were then determined as follows:
# An excess amount of each drug was added to each of the four cyclodextrin solutions and the solutions were sonicated in an ultrasonic bath for 3 hours, then allowed to equilibrate for 60 hours at room temperature (23° C.). […] However, by separate preparation of the cyclodextrin/polymer complexing agent as illustrated here, one can readily avoid heating drugs which are unstable at elevated temperature.
# [6] = 5% γCD
# [7] = physchem; settings: aqueous 5% (w/v) γcd
# [8] = Solubility of various drugs: effect of CMC in aqueous HPβCD solutions (Example 1); settings: for S4 /S3: 0.25% CMC + 10% HPβCD vs 10% HPβCD
# [9] = Effect of PVP on the solubilization of drugs in aqueous HPβCD solutions (Example 7); settings: for S4 /S3: with vs without 0.25% PVP
# [10] = assay type: physicochemical
# Excerpt: (2) The apparent stability constants of the drug -cyclodextrin complexes were increased when the polymers were present in the aqueous cyclodextrin complexation media in accord with the present invention. […];
# [11] = ΔH, ΔS and stability constant (Kc) of drug-HPβCD MS 0.6 complexes, effect of PVP (Example 17); assay type: physicochemical; settings: for ΔH / ΔS: HPβCD MS 0.6 complex
# Procedure: (§1) The effect of polyvinylpyrrolidone (PVP) on the enthalpy (ΔH) and the entropy (ΔS) of the stability constant (Kc) of the drug-cyclodextrin complex was determined.
# (§2) An excess amount of the drug was added to water containing 0, 0.1, 0.25 or 0.5% (w/v) PVP and various amounts of HPβCD or HPαCD.
# [12] = physchem; remark: listed apart in the source
# [13] = Dissolution of hydrocortisone from tablets, USP XXII paddle apparatus (Example 10); assay type: physicochemical; settings: 3 minutes, 37° C.
# Procedure: After equilibration for 3 days at room temperature, the suspensions were filtered through 0.45 μm membrane filters, the tiltrates were lyophilized and the solid which formed was ground with a mortar and pestle. The amount of hydrocortisone incorporated into the HPβCD complex was determined by HPLC.
# Individual disks of 200 mg hydrocortisone-HPβCD complex were compressed in a hydraulic press under vacuum and a force of 1×10^4 kg for 1.5 minutes using a 13 mm (diameter) IR potassium bromide pellet punch.
# The dissolution studies were carried out using a USP XXII described paddle apparatus for dissolution rate determination. The release rate was determined at 37±1° C. and 100 rpm by adding one tablet to 900 ml of water. Samples were withdrawn at various time intervals, filtered through 0.45 membrane filters and analyzed by HPLC.
# [14] = Transdermal delivery of hydrocortisone in vitro, Franz diffusion cell (Example 15a); assay type: in vitro ADME, hairless mice; settings: 0.25% (w/v) PVP vs no PVP, at maximum, HPβCD about 12% w/v
# Procedure: . Female hairless mice were sacrificed by cervical dislocation and their full-thickness skins were removed and placed in Franz diffusion cells of type FDC 400 15FF, diameter 1.5 cm (Vangard International Inc., USA), containing 12.3 ml receptor phase. The receptor phase consisted of phosphate buffer saline pH 7.4 containing 0.3% (w/v) Brij-58™ and 0.4% (v/v) formaldehyde and was stirred with a magnetic bar. The receptor chamber was kept at 37° C. by circulating water through an external jacket. […]. After equilibration for three days, 2.0 ml of the donor phase was applied to the skin surface (the stratum corneum) and the donor chamber covered with Parafilm™ (a paraffin-coated plastic film). Samples of the receptor phase were removed from the cells, at 12 hour intervals, for three days and replaced with fresh buffer solution. The samples were kept frozen until analyzed by HPLC. Each experiment was repeated at least three times. The results depicted in FIG. 4 are the mean values ± standard error of the mean (SE).
# [15] = assay type: physicochemical; settings: HPαCD MS 0.6 complex
# Procedure: as §1, §2
# [16] = for flux (F) through hairless mouse skin: 37° C., mean ± standard deviation, 4 times
# [17] = 10% ethanol in water, organic solvent or mixture
# [18] = 10% ethanol, 10% hpbcd, organic solvent or mixture
# [19] = ethanol, cmc, hpbcd, organic solvent or mixture
structure (smiles),measurement,setting,value
"Clc1ccc(COC(Cn2ccnc2)c2ccc(Cl)cc2Cl)c(Cl)c1 (centres unmarked) [Miconazole, miconazole]",solubility,[1]; 0.25% cmc + 10% hpbetacd,2500 µg/mL
same,solubility,[1]; aqueous 0.25% cmc,60 µg/mL
same,solubility,[1]; aqueous 10% hpbetacd,1980 µg/mL
same,solubility,[1]; water,40 µg/mL
same,solubility at 72 h,[2]; 0.25% cmc,3310 µg/mL
same,solubility at 72 h,[2],2510 µg/mL
same,solubility at 72 h,"[3]; 0.25% pvp, 10% hpβcd",3400 µg/mL
same,solubility at 72 h,[3]; 10% hpβcd ms 0.7,2360 µg/mL
same,solubility at 72 h,[3]; aqueous 0.25% pvp,200 µg/mL
same,solubility at 72 h,[3]; water,40 µg/mL
same,solubility,[4]; 0.25% cmc in water,60 µg/mL
same,solubility,"[4]; 0.25% cmc, 10% hpbcd",2500 µg/mL
same,solubility,[4]; [17],310 µg/mL
same,solubility,[4]; [18],2220 µg/mL
same,solubility,[4]; 10% hpbcd in water,1980 µg/mL
same,solubility,[4]; [19],12600 µg/mL
same,solubility,[4]; water,40 µg/mL
"NC(=O)N1c2ccccc2C=Cc2ccccc21 [Carbamazepine, carbamazepine]",solubility,"[5]; 9.88% hpbetacd + 0.12% cmc, 9.88% (w/v) HPβCD and 0.12% (w/v) CMC, read-out: S3 solubility",6660 µg/mL
same,solubility,"[5]; 9.88% hpbetacd + 0.12% hpmc, 9.88% (w/v) HPβCD and 0.12% (w/v) HPMC, read-out: S4 solubility",9530 µg/mL
same,solubility,"[5]; 9.88% hpbetacd + 0.12% pvp, 9.88% (w/v) HPβCD and 0.12% (w/v) PVP, read-out: S2 solubility",9800 µg/mL
same,solubility,"[5]; 10% hpbetacd, 10% (w/v) HPβCD, read-out: S1 solubility",7000 µg/mL
same,Scp /Sco,[6]; CMC,1.33
same,Scp /Sco,[6]; HPMC,2.27
same,Scp /Sco,[6]; PVP,2.18
same,solubility,[7],490 µg/mL
same,S4 /S3,[8],1.31
same,solubility,[8]; 0.25% cmc + 10% hpbetacd,9200 µg/mL
same,solubility,[8]; aqueous 0.25% cmc,200 µg/mL
same,solubility,[8]; aqueous 10% hpbetacd,7000 µg/mL
same,solubility,[8]; water,110 µg/mL
same,solubility at 72 h,"[9]; 0.25% pvp, 10% hpβcd",7500 µg/mL
same,solubility at 72 h,[9]; 10% hpβcd ms 0.7,6430 µg/mL
same,solubility at 72 h,[9]; aqueous 0.25% pvp,310 µg/mL
same,solubility at 72 h,[9]; water,110 µg/mL
same,S4 /S3,[9],1.17
"C[C@@H]1C[C@H]2[C@@H]3CCC4=CC(=O)C=C[C@]4(C)[C@@]3(F)[C@@H](O)C[C@]2(C)[C@@]1(O)C(=O)CO [Dexamethasone, dexamethasone]",increase in apparent stability constant,[10],about 26%
same,S4 /S3,[8],1.04
same,solubility,[8]; 0.25% cmc + 10% hpbetacd,8750 µg/mL
same,solubility,[8]; aqueous 0.25% cmc,330 µg/mL
same,solubility,[8]; aqueous 10% hpbetacd,8430 µg/mL
same,solubility,[8]; water,260 µg/mL
same,solubility at 72 h,"[9]; 0.25% pvp, 10% hpβcd",8000 µg/mL
same,solubility at 72 h,[9]; 10% hpβcd ms 0.7,7530 µg/mL
same,solubility at 72 h,[9]; aqueous 0.25% pvp,330 µg/mL
same,solubility at 72 h,[9]; water,260 µg/mL
same,S4 /S3,[9],1.06
"CC(=O)Nc1nnc(S(N)(=O)=O)s1 [Acetazolamide, acetazolamide]",ΔH,[11]; PVP 0.00% w/v,-4.4 kcal/mol
same,ΔS,[11]; PVP 0.00% w/v,-26.0 J mol^-1 K^-1
same,ΔH,[11]; PVP 0.10% w/v,-6.17 kcal/mol
same,ΔS,[11]; PVP 0.10% w/v,-49.6 J mol^-1 K^-1
same,ΔH,[11]; PVP 0.25% w/v,-5.93 kcal/mol
same,ΔS,[11]; PVP 0.25% w/v,-46.2 J mol^-1 K^-1
same,ΔH,[11]; PVP 0.50% w/v,-6.17 kcal/mol
same,ΔS,[11]; PVP 0.50% w/v,-49.8 J mol^-1 K^-1
same,increase in apparent stability constant,"[11]; HPβCD complex, 0.25% PVP (w/v)",13%
same,solubility,[1]; 0.25% cmc + 10% hpbetacd,3110 µg/mL
same,solubility,[1]; aqueous 0.25% cmc,840 µg/mL
same,solubility,[1]; aqueous 10% hpbetacd,2520 µg/mL
same,solubility,[1]; water,700 µg/mL
same,solubility,"[12]; 0.10% cmc, 10% hpβcd",3600 µg/mL
same,solubility,"[12]; 0.25% cmc, 10% hpβcd",3210 µg/mL
same,solubility,"[12]; 0.50% cmc, 10% hpβcd",3750 µg/mL
same,solubility,[12]; aqueous 10% hpβcd ms=0.9,2520 µg/mL
same,solubility at 72 h,"[3]; 0.25% pvp, 10% hpβcd",3660 µg/mL
same,solubility at 72 h,[3]; 10% hpβcd ms 0.7,2800 µg/mL
same,solubility at 72 h,[3]; aqueous 0.25% pvp,1050 µg/mL
same,solubility at 72 h,[3]; water,700 µg/mL
same,solubility,[4]; 0.25% cmc in water,840 µg/mL
same,solubility,"[4]; 0.25% cmc, 10% hpbcd",3110 µg/mL
same,solubility,[4]; [17],1110 µg/mL
same,solubility,"[4]; 10% ethanol, 0.25% cmc, organic solvent or mixture",750 µg/mL
same,solubility,[4]; [18],2190 µg/mL
same,solubility,[4]; 10% hpbcd in water,2520 µg/mL
same,solubility,[4]; [19],2500 µg/mL
same,solubility,[4]; water,700 µg/mL
"C[C@]12CCC(=O)C=C1CC[C@@H]1[C@@H]2[C@@H](O)C[C@@]2(C)[C@H]1CC[C@]2(O)C(=O)CO [Hydrocortisone, hydrocortisone]",hydrocortisone dissolved,"[13]; HPβCD complex formed without CMC, average of four",68.3%
same,hydrocortisone dissolved,[13]; HPβCD complex with 0.1% (w/v) CMC,74.2%
same,hydrocortisone dissolved,[13]; HPβCD complex with 0.25% (w/v) CMC,81.0%
same,flux increase with PVP,[14],about 40%
same,ΔH,[11]; PVP 0.00% w/v,-4.88 kcal/mol
same,ΔS,[11]; PVP 0.00% w/v,-6.2 J mol^-1 K^-1
same,ΔH,[11]; PVP 0.10% w/v,-9.8 kcal/mol
same,ΔS,[11]; PVP 0.10% w/v,-68.6 J mol^-1 K^-1
same,ΔH,[11]; PVP 0.25% w/v,-8.72 kcal/mol
same,ΔS,[11]; PVP 0.25% w/v,-56.4 J mol^-1 K^-1
same,ΔH,[11]; PVP 0.50% w/v,-9.27 kcal/mol
same,ΔS,[11]; PVP 0.50% w/v,-64.9 J mol^-1 K^-1
same,ΔH,[15]; PVP 0.00% w/v,-7.67 kcal/mol
same,ΔS,[15]; PVP 0.00% w/v,-70.2 J mol^-1 K^-1
same,ΔH,[15]; PVP 0.10% w/v,-9.39 kcal/mol
same,ΔS,[15]; PVP 0.10% w/v,-94.5 J mol^-1 K^-1
same,ΔH,[15]; PVP 0.25% w/v,-11.6 kcal/mol
same,ΔS,[15]; PVP 0.25% w/v,-124.2 J mol^-1 K^-1
same,ΔH,[15]; PVP 0.50% w/v,-8.53 kcal/mol
same,ΔS,[15]; PVP 0.50% w/v,-81.9 J mol^-1 K^-1
same,flux (F) through hairless mouse skin,[16]; 6% (w/v) HPβCD MS 0.6 and 0.25% (w/v) PVP,0.158 ± 0.035 μm/cm^2 /h
same,transdermal delivery,[16]; PVP-containing sample vs without PVP,over two times faster
same,flux (F) through hairless mouse skin,[16]; aqueous 8% (w/v) HPβCD MS 0.6,0.075 ± 0.023 μm/cm^2 /h
